Values quoted from earlier work as cited in US20100189771A1, “FIXED RATIO DRUG COMBINATION TREATMENTS FOR SOLID TUMORS” (priority 2005, published 2010).
Where two headings read alike, the source gives them in different places.

Settings: conventional irinotecan

IRINOTECAN AUC (dose 240 mg/m^2, N=3): 18,091 ng-h/ml | IRINOTECAN Cmax (dose 240 mg/m^2, N=3, patients' plasma): 2,810 ng/ml | IRINOTECAN AUC (dose 340 mg/m^2, N=6): 22,998 ng-h/ml | IRINOTECAN Cmax (dose 340 mg/m^2, N=6): 3,392 ng/ml
Structure (SMILES): CCc1c2c(nc3ccc(OC(=O)N4CCC(N5CCCCC5)CC4)cc13)-c1cc3c(c(=O)n1C2)COC(=O)[C@]3(O)CC [Irinotecan, irinotecan]
